Values after ≈ are worked out from the molar mass of the structure shown. Active and inactive are the calls of the source. The rule behind the calls is not given here.
What was measured:
Rhodotorula mucilaginosa [1] = test: Antifungal activity against Rhodotorula mucilaginosa NCIM 3174 at 1000 ug/disk after 72 hr by disk diffusion method; type: functional; conditions: NCIM 3174, 72 h, read-out: DIZ
Escherichia coli [2] = test: Antibacterial activity against Escherichia coli NCIM 2065 at 1000 ug/disk after 24 hr by disk diffusion method; type: functional; conditions: NCIM 2065, 24 h, read-out: DIZ
Aspergillus flavus [3] = test: Antifungal activity against Aspergillus flavus NCIM 535 at 500 ug/disk after 72 hr by disk diffusion method; type: functional
Pseudomonas aeruginosa [4] = test: Antibacterial activity against Pseudomonas aeruginosa NCIM 2200 at 1000 ug/disk after 24 hr by disk diffusion method; type: functional; conditions: NCIM 2200, 24 h, read-out: DIZ
Rhodotorula mucilaginosa [5] = test: Antifungal activity against Rhodotorula mucilaginosa NCIM 3174 after 72 hr by broth dilution assay; type: functional; conditions: NCIM 3174, 72 h
Bacillus cereus [6] = test: Antibacterial activity against Bacillus cereus NCIM 2155 at 1000 ug/disk after 24 hr by disk diffusion method; type: functional; conditions: NCIM 2155, 24 h, read-out: DIZ
Candida albicans [7] = test: Antifungal activity against Candida albicans NCIM 3471 at 500 ug/disk after 72 hr by disk diffusion method; type: functional
Escherichia coli [8] = test: Antibacterial activity against Escherichia coli NCIM 2065 at 500 ug/disk after 24 hr by disk diffusion method; type: functional; conditions: for zone of inhibition at 500 µg/disc: NCIM 2065, 24 h, read-out: DIZ
Streptomyces albus [9] = test: Antibacterial activity against Streptomyces albus NCIM 2178 after 24 hr by broth dilution assay; type: functional; conditions: NCIM 2178, 24 h
Aspergillus niger [10] = test: Antifungal activity against Aspergillus niger NCIM 1196 at 500 ug/disk after 72 hr by disk diffusion method; type: functional
Streptomyces albus [11] = test: Antibacterial activity against Streptomyces albus NCIM 2178 at 500 ug/disk after 24 hr by disk diffusion method; type: functional, organism-based
Bacillus subtilis [12] = test: Antibacterial activity against Bacillus subtilis NCIM 2063 after 24 hr by broth dilution assay; type: functional; conditions: NCIM 2063, 24 h
Penicillium chrysogenum [13] = test: Antifungal activity against Penicillium chrysogenum NCIM 707 at 500 ug/disk after 72 hr by disk diffusion method; type: functional; conditions: for zone of inhibition at 500 µg/disc: NCIM 707, 72 h, read-out: DIZ
Bacillus subtilis [14] = test: Antibacterial activity against Bacillus subtilis NCIM 2063 at 1000 ug/disk after 24 hr by disk diffusion method; type: functional; conditions: NCIM 2063, 24 h, read-out: DIZ
Penicillium chrysogenum [15] = test: Antifungal activity against Penicillium chrysogenum NCIM 707 at 1000 ug/disk after 72 hr by disk diffusion method; type: functional; conditions: NCIM 707, 72 h, read-out: DIZ
Aspergillus flavus [16] = test: Antifungal activity against Aspergillus flavus NCIM 535 at 1000 ug/disk after 72 hr by disk diffusion method; type: functional; conditions: NCIM 535, 72 h, read-out: DIZ
Aspergillus niger [17] = test: Antifungal activity against Aspergillus niger NCIM 1196 at 1000 ug/disk after 72 hr by disk diffusion method; type: functional; conditions: for zone of inhibition at 1000 µg/disc: NCIM 1196, 72 h, read-out: DIZ
Klebsiella aerogenes [18] = test: Antibacterial activity against Enterobacter aerogenes NCIM 2239 at 500 ug/disk after 24 hr by disk diffusion method; type: functional; conditions: for zone of inhibition at 500 µg/disc: NCIM 2239, 24 h, read-out: DIZ
Pseudomonas aeruginosa [19] = test: Antibacterial activity against Pseudomonas aeruginosa NCIM 2200 after 24 hr by broth dilution assay; type: functional; conditions: NCIM 2200, 24 h
Bacillus cereus [20] = test: Antibacterial activity against Bacillus cereus NCIM 2155 at 500 ug/disk after 24 hr by disk diffusion method; type: functional; conditions: NCIM 2155, 24 h, read-out: DIZ
Candida albicans [21] = test: Antifungal activity against Candida albicans NCIM 3471 at 1000 ug/disk after 72 hr by disk diffusion method; type: functional; conditions: NCIM 3471, 72 h, read-out: DIZ
Pseudomonas aeruginosa [22] = test: Antibacterial activity against Pseudomonas aeruginosa NCIM 2200 at 500 ug/disk after 24 hr by disk diffusion method; type: functional; conditions: for zone of inhibition at 500 µg/disc: NCIM 2200, 24 h, read-out: DIZ
Bacillus subtilis [23] = test: Antibacterial activity against Bacillus subtilis NCIM 2063 at 500 ug/disk after 24 hr by disk diffusion method; type: functional
Lipomyces lipofer [24] = test: Antifungal activity against Lipomyces lipofer NCIM 3252 at 500 ug/disk after 72 hr by disk diffusion method; type: functional; conditions: NCIM 3252, 72 h, read-out: DIZ
Bacillus cereus [25] = test: Antibacterial activity against Bacillus cereus NCIM 2155 after 24 hr by broth dilution assay; type: functional; conditions: NCIM 2155, 24 h
Penicillium chrysogenum [26] = test: Antifungal activity against Penicillium chrysogenum NCIM 707 after 72 hr by broth dilution assay; type: functional; conditions: NCIM 707, 72 h
Klebsiella aerogenes [27] = test: Antibacterial activity against Enterobacter aerogenes NCIM 2239 at 1000 ug/disk after 24 hr by disk diffusion method; type: functional; conditions: NCIM 2239, 24 h, read-out: DIZ
Lipomyces lipofer [28] = test: Antifungal activity against Lipomyces lipofer NCIM 3252 after 72 hr by broth dilution assay; type: functional; conditions: NCIM 3252, 72 h
Streptomyces albus [29] = test: Antibacterial activity against Streptomyces albus NCIM 2178 at 1000 ug/disk after 24 hr by disk diffusion method; type: functional; conditions: for zone of inhibition at 1000 µg/disc: NCIM 2178, 24 h, read-out: DIZ
Aspergillus flavus [30] = test: Antifungal activity against Aspergillus flavus NCIM 535 after 72 hr by broth dilution assay; type: functional; conditions: NCIM 535, 72 h
Candida albicans [31] = test: Antifungal activity against Candida albicans NCIM 3471 after 72 hr by broth dilution assay; type: functional; conditions: NCIM 3471, 72 h
Klebsiella aerogenes [32] = test: Antibacterial activity against Enterobacter aerogenes NCIM 2239 after 24 hr by broth dilution assay; type: functional; conditions: NCIM 2239, 24 h
Rhodotorula mucilaginosa [33] = test: Antifungal activity against Rhodotorula mucilaginosa NCIM 3174 at 500 ug/disk after 72 hr by disk diffusion method; type: functional; conditions: for zone of inhibition at 500 µg/disc: NCIM 3174, 72 h, read-out: DIZ
Escherichia coli [34] = test: Antibacterial activity against Escherichia coli NCIM 2065 after 24 hr by broth dilution assay; type: functional; conditions: NCIM 2065, 24 h
Lipomyces lipofer [35] = test: Antifungal activity against Lipomyces lipofer NCIM 3252 at 1000 ug/disk after 72 hr by disk diffusion method; type: functional; conditions: NCIM 3252, 72 h, read-out: DIZ

| MIC (Rhodotorula mucilaginosa [5]) [µg/mL] | MIC (Bacillus subtilis [12]) [µg/mL] | MIC (Pseudomonas aeruginosa [19]) [µg/mL] | MIC (Bacillus cereus [25]) [µg/mL] | MIC (Lipomyces lipofer [28]) [µg/mL] | MIC (Candida albicans [31]) [µg/mL] | MIC (Klebsiella aerogenes [32]) [µg/mL] | Compound | zone of inhibition at 1000 µg/disc (Rhodotorula mucilaginosa [1]) [mm] | zone of inhibition at 1000 µg/disc (Escherichia coli [2]) [mm] | zone of inhibition at 1000 µg/disc (Pseudomonas aeruginosa [4]) [mm] | zone of inhibition at 1000 µg/disc (Bacillus cereus [6]) [mm] | diameter of the inhibition zone (DIZ) (Aspergillus niger [10]) | diameter of the inhibition zone (DIZ) (Streptomyces albus [11]) | zone of inhibition at 1000 µg/disc (Bacillus subtilis [14]) [mm] | zone of inhibition at 1000 µg/disc (Penicillium chrysogenum [15]) [mm] | zone of inhibition at 1000 µg/disc (Aspergillus flavus [16]) [mm] | zone of inhibition at 500 µg/disc (Bacillus cereus [20]) [mm] | zone of inhibition at 1000 µg/disc (Candida albicans [21]) [mm] | zone of inhibition at 500 µg/disc (Lipomyces lipofer [24]) [mm] | zone of inhibition at 1000 µg/disc (Klebsiella aerogenes [27]) [mm] | further results |
| --- | --- | --- | --- | --- | --- | --- | --- | --- | --- | --- | --- | --- | --- | --- | --- | --- | --- | --- | --- | --- | --- |
| 15.6 (≈ 68 µM) | 62.5 (≈ 273 µM) | 31.2 (≈ 136 µM) | 31.2 (≈ 136 µM) | 125 (≈ 545 µM) | 125 (≈ 545 µM) | 3.9 (≈ 17 µM) | O=c1[nH]c(=S)[nH]c2nc3ccccc3cc12 | 12 | 10 | 11 | 11 | inactive | inactive | 10 | 12 | 15 | 8 | 11 | 9 | 13 | zone of inhibition at 500 µg/disc (Aspergillus flavus [3]; NCIM 535, 72 h, read-out: DIZ): 9 mm; diameter of the inhibition zone (DIZ) (Candida albicans [7]): inactive; zone of inhibition at 500 µg/disc (Escherichia coli [8]): 9 mm; MIC (Streptomyces albus [9]): 62.5 µg/mL (≈ 273 µM); zone of inhibition at 500 µg/disc (Penicillium chrysogenum [13]): 10 mm; zone of inhibition at 1000 µg/disc (Aspergillus niger [17]): 10 mm; zone of inhibition at 500 µg/disc (Klebsiella aerogenes [18]): 10 mm; zone of inhibition at 500 µg/disc (Pseudomonas aeruginosa [22]): 10 mm; diameter of the inhibition zone (DIZ) (Bacillus subtilis [23]): inactive; MIC (Penicillium chrysogenum [26]): 7.8 µg/mL (≈ 34 µM); zone of inhibition at 1000 µg/disc (Streptomyces albus [29]): 12 mm; MIC (Aspergillus flavus [30]): 7.8 µg/mL (≈ 34 µM); zone of inhibition at 500 µg/disc (Rhodotorula mucilaginosa [33]): 10 mm; MIC (Escherichia coli [34]): 31.2 µg/mL (≈ 136 µM); zone of inhibition at 1000 µg/disc (Lipomyces lipofer [35]): 12 mm |
| 15.6 (≈ 64.1 µM) | 62.5 (≈ 257 µM) | 31.2 (≈ 128 µM) | 31.2 (≈ 128 µM) | 31.2 (≈ 128 µM) | 31.2 (≈ 128 µM) | 3.9 (≈ 16 µM) | COc1ccc2nc3[nH]c(=O)[nH]c(=O)c3cc2c1 | 10 | 12 | 13 | 12 | inactive | inactive | 9 | 9 | 9 | 9 | 10 | 9 | 13 | diameter of the inhibition zone (DIZ) (Aspergillus flavus [3]): inactive; zone of inhibition at 500 µg/disc (Candida albicans [7]; NCIM 3471, 72 h, read-out: DIZ): 9 mm; zone of inhibition at 500 µg/disc (Escherichia coli [8]): 10 mm; diameter of the inhibition zone (DIZ) (Penicillium chrysogenum [13]): inactive; diameter of the inhibition zone (DIZ) (Aspergillus niger [17]): inactive; zone of inhibition at 500 µg/disc (Klebsiella aerogenes [18]): 10 mm; zone of inhibition at 500 µg/disc (Pseudomonas aeruginosa [22]): 9 mm; diameter of the inhibition zone (DIZ) (Bacillus subtilis [23]): inactive; MIC (Penicillium chrysogenum [26]): 62.5 µg/mL (≈ 257 µM); diameter of the inhibition zone (DIZ) (Streptomyces albus [29]): inactive; diameter of the inhibition zone (DIZ) (Rhodotorula mucilaginosa [33]): inactive; MIC (Escherichia coli [34]): 7.8 µg/mL (≈ 32.1 µM); zone of inhibition at 1000 µg/disc (Lipomyces lipofer [35]): 11 mm |
| 125 (≈ 406 µM) | 7.8 (≈ 25.3 µM) | 125 (≈ 406 µM) | 15.6 (≈ 50.6 µM) | 62.5 (≈ 203 µM) | 125 (≈ 406 µM) | 125 (≈ 406 µM) | O=c1[nH]c(=S)[nH]c2nc3ccc(Br)cc3cc12 | 12 | 10 | 12 | 15 | inactive | inactive | 14 | 12 | 9 | 10 | 12 | 8 | 8 | diameter of the inhibition zone (DIZ) (Aspergillus flavus [3]): inactive; diameter of the inhibition zone (DIZ) (Candida albicans [7]): inactive; diameter of the inhibition zone (DIZ) (Escherichia coli [8]): inactive; MIC (Streptomyces albus [9]): 62.5 µg/mL (≈ 203 µM); zone of inhibition at 500 µg/disc (Penicillium chrysogenum [13]): 8 mm; zone of inhibition at 1000 µg/disc (Aspergillus niger [17]): 10 mm; diameter of the inhibition zone (DIZ) (Klebsiella aerogenes [18]): inactive; diameter of the inhibition zone (DIZ) (Pseudomonas aeruginosa [22]): inactive; zone of inhibition at 500 µg/disc (Bacillus subtilis [23]; NCIM 2063, 24 h, read-out: DIZ): 12 mm; zone of inhibition at 1000 µg/disc (Streptomyces albus [29]): 12 mm; zone of inhibition at 500 µg/disc (Rhodotorula mucilaginosa [33]): 7 mm; MIC (Escherichia coli [34]): 125 µg/mL (≈ 406 µM); zone of inhibition at 1000 µg/disc (Lipomyces lipofer [35]): 12 mm |

— ChEMBL document CHEMBL3045679, “Microwave-assisted synthesis and pharmacological studies of novel 5-deazaalloxazine derivatives” (2012)
